Test results published in patent US6319929A, “Suksdorfin analogs, compositions thereof, and methods for making and using thereof” (priority 1998, dated 2001).
Entries after “also recorded” stand apart in the source; their conditions may differ. Where two headings read alike, the source gives them in different places.

What was measured:
[1] = system: HIV-1 replication in fresh monocytes; assay: HIV-1 infection of fresh monocytes obtained by adherence (p24); type: cell-based; conditions: for inhibition at 0.032 µg/mL / inhibition at 0.16 µg/mL / inhibition at 0.8 µg/mL / inhibition at 4 µg/mL / inhibition at 20 µg/mL: Human immunodeficiency virus 1, Monocyte, read-out: % suppression
From the text: Results (Table 12) from adding Suksdorfin to fresh monocytes infected with HIV-1.
The monocytes which were used for this experiment were obtained by adherence and not by elutriation; therefore, this cell population is not as pure as what was used for the 16 monocyte data above.

[2] = system: HIV-1 replication in H9 cells; assay: Combination study of suksdorfin with AZT, ddI and ddC: HIV-1 replication in acutely infected H9 cells; type: cell-based, HIV-1 (IIIB)
Method: HIV Growth Inhibition Assay: The T cell line, H9, and the promonocytic cell line, U937, were maintained separately in continuous culture with complete medium (RPMI 1640 and […] fetal calf serum (FCS) at 5% CO2 and 37° C. Cell lines were used in experiments only when in log phase of growth; whereas, uninfected peripheral blood mononuclear cells (PBMCs) were first stimulated with PHA (1 μg/ml) for 3 days. All cell targets were incubated with HIV-1 (IIIB isolate, TCID50 10 ^4 IU/mi, at a multiplicity of infection of 0.1-0.01 IU/cell) for 1 hour at 37° C. and 5% CO2. The cell lines and PBMCs were washed thoroughly to remove unabsorbed virions and resuspended at 4×10^5 cells/ml in complete medium or complete medium with 10% v/v interleukin […] IL-2, respectively. Aliquots ( ml) were placed in wells of 24-well culture plates containing an equal volume of test compound (diluted in the appropriate culture medium). After incubation for 4 days at 37° C., cell density of uninfected cultures was determined by counting cells in a Coulter counter to assess toxicity of the test compound. A p24 antigen ELISA assay was used to determine the level of virus released in the medium of the HIV-infected cultures. The p24 antigen assay uses a HIV-1 anti-p24 specific monoclonal antibody as the capture antibody coated-on 96-well plates. Following a sample incubation period, rabbit serum containing antibodies for HIV-1 p24 is used to tag any p24 "captured" onto the microtiter well surface. […] The cut-off for the p24 ELISA assay is 12. pg/ml. P24 in the culture medium was quantitated against a standard curve containing known amounts of p24. […] Both the EC50 and IC50 values were calculated by plotting drug concentration versus percent inhibition, and then identifying a 50% inhibition value from the graph.
Combination Study: The experimental design is identical to the growth inhibition assay except that various concentrations of AZT, ddI or ddC were also added to cultures of acutely HIV-1 infected H9 cells that either have or have no received different concentrations of suksdorfin. The concentrations of AZT, ddI and ddC were 5 ten-fold dilutions starting at 1 μg/ml. [drawing 104] [drawing 105]

uninfected H9 cells = assay: Toxicity to uninfected H9 cells (cell growth); type: cell-based; conditions: Homo sapiens
Method: HIV inhibition assay. The HIV inhibition was measured as described herein. Briefly, H9 cells, a T cell line, (3.5×10^6 cells/ml) were incubated in the presence or absence of HIV-1 (IIIB strain, 0.01-0.1 TCID50 /cell) for 1 hour at 37° C. Cells were washed thoroughly and resuspended at a final concentration of 2×10^5 cells/ml in the presence or absence of compound. After incubation for 3-4 days at 37° C., the cell density of uninfected cultures was determined by cell count to assess toxicity of the drug. An aliquot of each cell-free supernatant was assayed by p24 antigen ELISA to quantitate the amount of HIV-1 present in the infected cultures. Test compounds were considered to be active at a particular concentration if p24 antigen levels were less than 70% of infected, untreated controls and were nontoxic to uninfected H9 cells.
HIV Growth Inhibition Assay: The T cell line, H9, and the promonocytic cell line, U937, were maintained separately in continuous culture with complete medium (RPMI 1640 and […] fetal calf serum (FCS) at 5% CO2 and 37° C. Cell lines were used in experiments only when in log phase of growth; whereas, uninfected peripheral blood mononuclear cells (PBMCs) were first stimulated with PHA (1 μg/ml) for 3 days. All cell targets were incubated with HIV-1 (IIIB isolate, TCID50 10 ^4 IU/mi, at a multiplicity of infection of 0.1-0.01 IU/cell) for 1 hour at 37° C. and 5% CO2. The cell lines and PBMCs were washed thoroughly to remove unabsorbed virions and resuspended at 4×10^5 cells/ml in complete medium or complete medium with 10% v/v interleukin […] IL-2, respectively. Aliquots ( ml) were placed in wells of 24-well culture plates containing an equal volume of test compound (diluted in the appropriate culture medium). After incubation for 4 days at 37° C., cell density of uninfected cultures was determined by counting cells in a Coulter counter to assess toxicity of the test compound. A p24 antigen ELISA assay was used to determine the level of virus released in the medium of the HIV-infected cultures. The p24 antigen assay uses a HIV-1 anti-p24 specific monoclonal antibody as the capture antibody coated-on 96-well plates. Following a sample incubation period, rabbit serum containing antibodies for HIV-1 p24 is used to tag any p24 "captured" onto the microtiter well surface. Peroxidase conjugated goat anti-rabbit serum is then used to tag HIV-1 p24 specific rabbit antibodies which have complexed with captured p24. […] The cut-off for the p24 ELISA assay is 12. pg/ml. P24 in the culture medium was quantitated against a standard curve containing known amounts of p24. The effective (EC50) and inhibitory (IC50) concentrations (for anti-HIV activity and cytotoxicity, respectively) were determined graphically. Both the EC50 and IC50 values were calculated by plotting drug concentration versus percent inhibition, and then identifying a 50% inhibition value from the graph.

U937 cells = assay: Toxicity to uninfected U937 cells; type: cell-based; conditions: Homo sapiens, U-937; U937 cell line
Method: Suksdorfin was also tested on an acute HIV-1 infection of the promonocytic cell line, U937. This was done again to determine drug specificity but this time on a monocytic cell line.
HIV Growth Inhibition Assay: The T cell line, H9, and the promonocytic cell line, U937, were maintained separately in continuous culture with complete medium (RPMI 1640 and […] fetal calf serum (FCS) at 5% CO2 and 37° C. Cell lines were used in experiments only when in log phase of growth; whereas, uninfected peripheral blood mononuclear cells (PBMCs) were first stimulated with PHA (1 μg/ml) for 3 days. All cell targets were incubated with HIV-1 (IIIB isolate, TCID50 10 ^4 IU/mi, at a multiplicity of infection of 0.1-0.01 IU/cell) for 1 hour at 37° C. and 5% CO2. The cell lines and PBMCs were washed thoroughly to remove unabsorbed virions and resuspended at 4×10^5 cells/ml in complete medium or complete medium with 10% v/v interleukin (Pettinato, et al. J. Amer. Pharm. Asso. […] After incubation for 4 days at 37° C., cell density of uninfected cultures was determined by counting cells in a Coulter counter to assess toxicity of the test compound. […] P24 in the culture medium was quantitated against a standard curve containing known amounts of p24. The effective (EC50) and inhibitory (IC50) concentrations (for anti-HIV activity and cytotoxicity, respectively) were determined graphically. […]

With `Cc1cn([C@H]2C[C@H](N=[N+]=[N-])[C@@H](CO)O2)c(=O)[nH]c1=O` [AZT, azidothymidine, reference compound] the p24 ([1]; Day 6, 0.008 μg/ml) was 42,004 pg/ml, the p24 ([1]; Day 6, 0.04 μg/ml) was 23,234 pg/ml and the p24 ([1]; Day 6, 0.2 μg/ml) was 34,360 pg/ml. For the same compound, the p24 ([1]; Day 6, 1 μg/ml) was 8,705 pg/ml, the p24 ([1]; Day 6, 5 μg/ml) was 13,542 pg/ml and the p24 ([1]; Day 12, 0.008 μg/ml) was 70,380 pg/ml. The p24 ([1]; Day 12, 0.04 μg/ml) was 17,144 pg/ml, the p24 ([1]; Day 12, 0.2 μg/ml) was 32,778 pg/ml and the p24 ([1]; Day 12, 1 μg/ml) was 5,354 pg/ml. The p24 ([1]; Day 12, 5 μg/ml) was 10,170 pg/ml, the p24 ([1]; Day 18, 0.008 μg/ml) was 75,428 pg/ml and the p24 ([1]; Day 18, 0.04 μg/ml) was 22,993 pg/ml. For the same compound, the p24 ([1]; Day 18, 0.2 μg/ml) was 31,759 pg/ml, the p24 ([1]; Day 18, 1 μg/ml) was 6,830 pg/ml and the p24 ([1]; Day 18, 5 μg/ml) was 12,330 pg/ml. For the same compound, the EC50 ([2]; Human immunodeficiency virus 1, H9) was 0.04 µg/mL, the IC50 ([2]; Human immunodeficiency virus 1, H9, read-out: IC50 (μM)^b) was 0.04 µg/mL and the “Therapeutic Index” value ([2]; Table 5, combinations with 4 μg/ml suksdorfin) was > 25. The “Therapeutic Index” value ([2]; Table 16, combinations with 4 μg/ml suksdorfin) was > 25, the “decrease of EC50 in presence of suksdorfin” value ([2]; with 4 μg/ml suksdorfin, H9) was 400 fold and the “increase of TI value in presence of suksdorfin” value ([2]; with 4 μg/ml suksdorfin, H9) was 400 fold. For the same compound, the IC50 (uninfected H9 cells; H9, Table 3, H9 lymphocytes) was 2000 µM and the IC50 (uninfected H9 cells; H9, Table 17, uninfected H9 cell growth) was 1880 µM.
For `CC(=O)O[C@@H]1[C@H](OC(=O)CC(C)C)c2c(ccc3ccc(=O)oc23)OC1(C)C` [Suksdorfin, suksdorfin], the p24 ([1]; Day 6, 0.032 μg/ml) was 64,614 pg/ml, the p24 ([1]; Day 6, 0.16 μg/ml) was 70,195 pg/ml and the p24 ([1]; Day 6, 0.8 μg/ml) was 53,043 pg/ml. For the same compound, the p24 ([1]; Day 6, 4 μg/ml) was 48,748 pg/ml, the p24 ([1]; Day 6, 20 μg/ml) was 16,712 pg/ml and the p24 ([1]; Day 12, 0.032 μg/ml) was 173,998 pg/ml. For the same compound, the p24 ([1]; Day 12, 0.16 μg/ml) was 203,633 pg/ml, the p24 ([1]; Day 12, 0.8 μg/ml) was 163,656 pg/ml and the p24 ([1]; Day 12, 4 μg/ml) was 89,467 pg/ml. The p24 ([1]; Day 12, 20 μg/ml) was 25,567 pg/ml, the p24 ([1]; Day 18, 0.032 μg/ml) was 105,882 pg/ml and the p24 ([1]; Day 18, 0.16 μg/ml) was 125,440 pg/ml. The p24 ([1]; Day 18, 0.8 μg/ml) was 130,970 pg/ml, the p24 ([1]; Day 18, 4 μg/ml) was 103,834 pg/ml and the p24 ([1]; Day 18, 20 μg/ml) was 23,506 pg/ml. The inhibition at 0.032 µg/mL ([1]; 144 h, Day 6, 0.032 μg/ml) was 0%, the inhibition at 0.16 µg/mL ([1]; 144 h, Day 6, 0.16 μg/ml) was 0% and the inhibition at 0.8 µg/mL ([1]; 144 h, Day 6, 0.8 μg/ml) was 0%. For the same compound, the inhibition at 4 µg/mL ([1]; 144 h, Day 6, 4 μg/ml) was 18%, the inhibition at 20 µg/mL ([1]; 144 h, Day 6, 20 μg/ml) was 72% and the inhibition at 0.032 µg/mL ([1]; 288 h, Day 12, 0.032 μg/ml) was 0%. The inhibition at 0.16 µg/mL ([1]; 288 h, Day 12, 0.16 μg/ml) was 0%, the inhibition at 0.8 µg/mL ([1]; 288 h, Day 12, 0.8 μg/ml) was 40% and the inhibition at 4 µg/mL ([1]; 288 h, Day 12, 4 μg/ml) was 67%. For the same compound, the inhibition at 20 µg/mL ([1]; 288 h, Day 12, 20 μg/ml) was 91%, the inhibition at 0.032 µg/mL ([1]; 432 h, Day 18, 0.032 μg/ml) was 0% and the inhibition at 0.16 µg/mL ([1]; 432 h, Day 18, 0.16 μg/ml) was 0%. For the same compound, the inhibition at 0.8 µg/mL ([1]; 432 h, Day 18, 0.8 μg/ml) was 0%, the inhibition at 4 µg/mL ([1]; 432 h, Day 18, 4 μg/ml) was 0% and the inhibition at 20 µg/mL ([1]; 432 h, Day 18, 20 μg/ml) was 78%. For the same compound, the “suppression of HIV-1 replication in fresh monocytes (in words)” value ([1]; suksdorfin at 20 and 4 μg/ml, AZT positive control) was “did suppress HIV-1 replication in fresh monocytes”, the IC50 (U937 cells) was > 20 µg/mL and the “synergy with AZT, ddI and ddC” value ([2]; H9) was “act synergistically with AZT, ddI and ddC”. The “synergy with AZT, ddI and ddC” value ([2]; H9, listed as 1) was “potentiate the anti-HIV effects of three nucleosides; also recorded: synergistic effect against HIV replication”, the EC50 ([2]; Human immunodeficiency virus 1, H9, Table 5, combinations with 4 μg/ml suksdorfin, read-out: EC50) was 2.8 µg/mL and the IC50 ([2]; Human immunodeficiency virus 1, H9, Table 16, concentration which inhibits viral replication by 50%, combinations with 4 μg/ml suksdorfin, read-out: IC50 (μM)^b) was 2.8 µg/mL. For the same compound, the EC50 ([2]; Human immunodeficiency virus 1, H9, later value, read-out: EC50 (value after increase)) was 1.5 to 2.8 µg/mL, the inhibition at 4 µg/mL ([2]; Human immunodeficiency virus 1, 4 μg/ml suksdorfin, H9) was 64% and the IC50 (uninfected H9 cells; H9, Table 14, concentration which inhibits uninfected cell growth by 50%, read-out: IC50 (μM)^a) was > 52 µM. For the same compound, the IC50 (uninfected H9 cells; H9, Table 17, uninfected H9 cell growth, read-out: IC50) was > 52 µM and the IC50 (uninfected H9 cells; H9, concentration which inhibits uninfected cell growth by 50%, read-out: IC50) was > 52 µM.
